# Experimental data taken from patent publication US11717531B2, “Preeclampsia” (ASTON UNIVERSITY, priority 2015, dated 2023).
# What was measured:
# preeclampsia = details: low-dose, started before 16 weeks' gestation, high-risk women; cited from earlier work
# miR-122 = assay: qPCR of miR-122 expression in treated HUVEC; type: cell-based, human; details: 24 hours
# Description: (§1) FIG. 2. MiR-122 and miR-374b are regulated by various agents that regulate sFlt-1 release. HUVEC cells were treated with 10 uM Hemin (A), 2 uM or 20 uM Pravastatin (B) 20 ng/ml VEGF-A (C) or 20 ng/ml VEGF-E (D) for 24 hours. Total RNA of the treated cells was isolated and the expression of miR-122 and miR-374b was measured by quantitative PCR. The relative miR-122 and miR-374b expression was normalized to RNU6.
# (§2) FIG. 3. Hmox1 regulates miR-122 and miR-374b expression. HUVEC cells were infected by adenovirus overexpressiong Hmox1 (A) or transfected with siRNA against Hmox1 (B) for 24 hours and the relative expression of miR-122 and miR-374b was measured by qPCR.
# (§3) Human umbilical vein endothelial cells (HUVECs) were isolated and cultured in M199 medium as described previously (Bussolati et al, 2001). Experiments were performed on third or fourth passage HUVEC.
# (§4) Sample preparation and real-time quantitative PCR was performed as described previously (Cudmore et al., 2007).
# miR-374b = assay: qPCR of miR-374b expression in treated HUVEC; type: cell-based, human; details: 24 hours
# Description: as §1, §2, §3, §4
# miR-152 = assay: qPCR of miR-152 expression in HUVEC; type: cell-based, human; details: growth factor 20 ng/ml, 24 hours
# Description: FIG. 9 Hypoxia, inflammatory cytokine or angiogenic growth factor stimulation increases microRNA-152 expression in endothelial cells and placental explants. Human placental explants was treated with (A) inflammatory cytokine mix (TNF-α, 20 ng/ml, IFN-γ, 20 ng/ml and IL-1β, 2 ng/ml), (B) hypoxia (1% 02) condition or (C) combination of cytokine mix and hypoxia condition and assayed for miR-152 expression using qPCR. Similarly, HUEVC cells were treated with (D) hypoxia (1% 02) condition, VEGF-E (20 ng/ml, E) or FGF-2 (20 ng/ml, F) for 24 hours and used for qPCR analysis of miR-152 expression. Moreover, overexpression of miR-152 inhibited PlGF release, but not the sFlt-1 and sEng in endothelial cells. HUVECs were electroporated with mimic-152 or control mimic-con. After resting for 24 hours, the transfected cells were treated with vehicle or VEGF-E (20 ng/ml) in the conditioned media. […] Data is shown as mean+SEM and analyzed by Student t-test.
# Human umbilical vein endothelial cells (HUVECs) were isolated and cultured in M199 medium as described previously (Bussolati et al, 2001). […] Briefly, human placental villus explants were incubated under stimulation of test substances or hypoxia condition and collected for quantitative PCR of miR-152. […]
# as §4
# miR-144 = assay: qPCR of miR-144 expression in treated HUVEC; type: cell-based, human; details: hemin 10 uM
# Description: as §3, §4
# sFlt-1 = sFlt-1 release from HUVEC, ELISA of conditioned media; type: cell-based, human; details: 24 hours
# Description: as §3
# Chemically synthesized double-stranded microRNA mimic and single-stranded inhibitor against miR-122 (mi-122 and anti-122) and miR-374b (mi-374b and anti-374b) were purchased from Qiagen and the efficiency was tested by Qpcr (FIG. 6A, B). HUVECs were trypsinized, and 1×10^6 cells were electroporated with ≈0.6 ug mimic-122 or mimic-374b, =3 ug anti-122 or anti-374 or control molecules using electroporation (Amaxa GmbH, Cologne, Germany) as described previously (Cudmore et al., 2007).
# Enzyme-linked immunosorbent assay (ELISA) kits for human sFlt-1 was obtained from R&D Systems and performed according to the manufacturer's specifications.
# Enzyme-linked immunosorbent assay (ELISA) kits for human sFlt-1, sEng and P1GF were obtained from R&D Systems and performed according to the manufacturer's specifications.
compound,measurement,setting,value
CC(=O)Oc1ccccc1C(=O)O [aspirin],"prevention of PE, severe PE and IUGR",preeclampsia,up to 50%
CC[C@H](C)C(=O)O[C@H]1C[C@H](O)C=C2C=C[C@H](C)[C@H](CC[C@@H](O)C[C@@H](O)CC(=O)O)[C@H]21 [pravastatin],induction of miR-122 expression,miR-122; pravastatin 2 uM and 20 uM,3-9 fold
same,induction of miR-374b expression,miR-374b; pravastatin 2 uM and 20 uM,2.7 fold
FGF-2: angiogenic growth factor used at 20 ng/ml,elevation of miR-152 expression,miR-152,~65%
hemin,increase of miR-122 expression,miR-122; hemin 10 uM,20 fold
same,effect on miR-144 expression,miR-144,no significant effect
same,recovery of hemin-reduced sFlt-1 release by VEGF-E stimulation,sFlt-1; hemin 10 uM plus VEGF-E,cannot be recovered
same,sFlt-1 release in endothelial cells,sFlt-1; hemin 10 uM,decreased
same,increase of miR-374b expression,miR-374b; hemin 10 uM,2.7 fold
vascular endothelial growth factor A [VEGF-A],decrease of miR-122 expression,miR-122; growth factor 20 ng/ml,47%
same,reduction of miR-374b expression,miR-374b; growth factor 20 ng/ml,20%
